Columns and labels:
Proteus vulgaris [1] = assay: Antibacterial activity against Proteus vulgaris ATCC 8427 at 5 ug after 24 hrs by disk diffusion method; format: functional; conditions: ATCC 8427, 24 h, read-out: IZ
Escherichia coli [2] = assay: Antibacterial activity against Escherichia coli ATCC 11230 at 5 ug after 24 hrs by disk diffusion method; format: functional; conditions: ATCC 11230, 24 h, read-out: IZ
Staphylococcus aureus [3] = assay: Antibacterial activity against Staphylococcus aureus ATCC 6538 at 5 ug after 24 hrs by disk diffusion method; format: functional; conditions: ATCC 6538, 24 h, read-out: IZ
Pseudomonas aeruginosa [4] = assay: Antibacterial activity against Pseudomonas aeruginosa ATCC 27853 at 5 ug after 24 hrs by disk diffusion method; format: functional; conditions: ATCC 27853, 24 h, read-out: IZ
Micrococcus luteus [5] = assay: Antibacterial activity against Micrococcus luteus La 2971 at 5 ug by disk diffusion method; format: functional; conditions: read-out: IZ
Klebsiella pneumoniae [6] = assay: Antibacterial activity against Klebsiella pneumoniae UC57 at 5 ug after 24 hrs by disk diffusion method; format: functional; conditions: read-out: IZ
[7] = tested on: Mycolicibacterium smegmatis; assay: Antibacterial activity against Mycobacterium smegmatis CCM 2067 at 5 ug after 24 hrs by disk diffusion method; format: functional; conditions: CCM 2067, 24 h, read-out: IZ
Bacillus cereus [8] = assay: Antibacterial activity against Bacillus cereus ATCC 7064 at 5 ug after 24 hrs by disk diffusion method; format: functional; conditions: ATCC 7064, 24 h, read-out: IZ
Listeria monocytogenes [9] = assay: Antibacterial activity against Listeria monocytogenes ATCC 15313 at 5 ug after 24 hrs by disk diffusion method; format: functional; conditions: ATCC 15313, 24 h, read-out: IZ
[10] = tested on: Mycolicibacterium smegmatis; assay: Antibacterial activity against Mycobacterium smegmatis CCM 2067 at 10 ug after 24 hrs by disk diffusion method; format: functional; conditions: CCM 2067, 24 h, read-out: IZ
Listeria monocytogenes [11] = assay: Antibacterial activity against Listeria monocytogenes ATCC 15313 at 10 ug after 24 hrs by disk diffusion method; format: functional; conditions: ATCC 15313, 24 h, read-out: IZ
Klebsiella pneumoniae [12] = assay: Antibacterial activity against Klebsiella pneumoniae UC57 at 10 ug after 24 hrs by disk diffusion method; format: functional; conditions: read-out: IZ
Bacillus cereus [13] = assay: Antibacterial activity against Bacillus cereus ATCC 7064 at 10 ug after 24 hrs by disk diffusion method; format: functional; conditions: ATCC 7064, 24 h, read-out: IZ
Micrococcus luteus [14] = assay: Antibacterial activity against Micrococcus luteus La 2971 at 10 ug by disk diffusion method; format: functional; conditions: read-out: IZ
Pseudomonas aeruginosa [15] = assay: Antibacterial activity against Pseudomonas aeruginosa ATCC 27853 at 10 ug after 24 hrs by disk diffusion method; format: functional; conditions: ATCC 27853, 24 h, read-out: IZ
Staphylococcus aureus [16] = assay: Antibacterial activity against Staphylococcus aureus ATCC 6538 at 10 ug after 24 hrs by disk diffusion method; format: functional; conditions: ATCC 6538, 24 h, read-out: IZ
Escherichia coli [17] = assay: Antibacterial activity against Escherichia coli ATCC 11230 at 10 ug after 24 hrs by disk diffusion method; format: functional; conditions: ATCC 11230, 24 h, read-out: IZ
Proteus vulgaris [18] = assay: Antibacterial activity against Proteus vulgaris ATCC 8427 at 10 ug after 24 hrs by disk diffusion method; format: functional; conditions: ATCC 8427, 24 h, read-out: IZ
Listeria monocytogenes [19] = assay: Antibacterial activity against Listeria monocytogenes ATCC 15313 at 30 ug after 24 hrs by disk diffusion method; format: functional; conditions: ATCC 15313, 24 h, read-out: IZ
Micrococcus luteus [20] = assay: Antibacterial activity against Micrococcus luteus La 2971 at 30 ug by disk diffusion method; format: functional; conditions: read-out: IZ
Staphylococcus aureus [21] = assay: Antibacterial activity against Staphylococcus aureus ATCC 6538 at 30 ug after 24 hrs by disk diffusion method; format: functional; conditions: ATCC 6538, 24 h, read-out: IZ
Bacillus cereus [22] = assay: Antibacterial activity against Bacillus cereus ATCC 7064 at 30 ug after 24 hrs by disk diffusion method; format: functional; conditions: ATCC 7064, 24 h, read-out: IZ
Klebsiella pneumoniae [23] = assay: Antibacterial activity against Klebsiella pneumoniae UC57 at 30 ug after 24 hrs by disk diffusion method; format: functional; conditions: read-out: IZ
[24] = tested on: Mycolicibacterium smegmatis; assay: Antibacterial activity against Mycobacterium smegmatis CCM 2067 at 30 ug after 24 hrs by disk diffusion method; format: functional; conditions: CCM 2067, 24 h, read-out: IZ
Pseudomonas aeruginosa [25] = assay: Antibacterial activity against Pseudomonas aeruginosa ATCC 27853 at 30 ug after 24 hrs by disk diffusion method; format: functional; conditions: ATCC 27853, 24 h, read-out: IZ
Proteus vulgaris [26] = assay: Antibacterial activity against Proteus vulgaris ATCC 8427 at 30 ug after 24 hrs by disk diffusion method; format: functional; conditions: ATCC 8427, 24 h, read-out: IZ
Escherichia coli [27] = assay: Antibacterial activity against Escherichia coli ATCC 11230 at 30 ug after 24 hrs by disk diffusion method; format: functional; conditions: ATCC 11230, 24 h, read-out: IZ
Pseudomonas aeruginosa [28] = assay: Antibacterial activity against Pseudomonas aeruginosa ATCC 27853 after 24 hrs by dilution method; format: functional
Klebsiella pneumoniae [29] = assay: Antibacterial activity against Klebsiella pneumoniae UC57 after 24 hrs by dilution method; format: functional
Micrococcus luteus [30] = assay: Antibacterial activity against Micrococcus luteus La 2971 after 24 hrs by dilution method; format: functional
Escherichia coli [31] = assay: Antibacterial activity against Escherichia coli ATCC 11230 after 24 hrs by dilution method; format: functional
Listeria monocytogenes [32] = assay: Antibacterial activity against Listeria monocytogenes ATCC 15313 after 24 hrs by dilution method; format: functional
Bacillus cereus [33] = assay: Antibacterial activity against Bacillus cereus ATCC 7064 after 24 hrs by dilution method; format: functional
[34] = tested on: Mycolicibacterium smegmatis; assay: Antibacterial activity against Mycobacterium smegmatis CCM 2067 after 24 hrs by dilution method; format: functional
Staphylococcus aureus [35] = assay: Antibacterial activity against Staphylococcus aureus ATCC 6538 after 24 hrs by dilution method; format: functional
Proteus vulgaris [36] = assay: Antibacterial activity against Proteus vulgaris ATCC 8427 by after 24 hrs dilution method; format: functional
[37] = tested on: Hanseniaspora guilliermondii; assay: Antifungal activity against Hanseniaspora guilliermondii DSM 3432 after 48 hrs by dilution method; format: functional
Rhodotorula mucilaginosa [38] = assay: Antifungal activity against Rhodotorula rubra DSM 70403 after 48 hrs by dilution method; format: functional
Rhodotorula mucilaginosa [39] = assay: Antifungal activity against Rhodotorula rubra DSM 70403 at 100 ug after 72 hrs by disk diffusion method; format: functional, organism-based
Kluyveromyces marxianus [40] = assay: Antifungal activity against Kluyveromyces fragilis NRRL 2415 at 100 ug after 72 hrs by disk diffusion method; format: functional, organism-based
[41] = tested on: Hanseniaspora guilliermondii; assay: Antifungal activity against Hanseniaspora guilliermondii DSM 3432 at 100 ug after 72 hrs by disk diffusion method; format: functional, organism-based
Kluyveromyces marxianus [42] = assay: Antifungal activity against Kluyveromyces fragilis NRRL 2415 after 48 hrs by dilution method; format: functional
Debaryomyces hansenii [43] = assay: Antifungal activity against Debaryomyces hansenii DSM 70238 after 48 hrs by dilution method; format: functional
Candida albicans = assay: Antifungal activity against Candida albicans ATCC 10231 after 48 hrs by dilution method; format: functional
Debaryomyces hansenii [44] = assay: Antifungal activity against Debaryomyces hansenii DSM 70238 at 100 ug after 72 hrs by disk diffusion method; format: functional, organism-based

Compound: CC1COc2c(N3CCN(C)CC3)c(F)cc3c(=O)c(C(=O)O)cn1c23 (centres undefined) [OFLOXACIN]
- zone of inhibition at 5 µg/disc (Proteus vulgaris [1]): 28 mm
- zone of inhibition at 5 µg/disc (Escherichia coli [2]): 30 mm
- zone of inhibition at 5 µg/disc (Staphylococcus aureus [3]): 24 mm
- zone of inhibition at 5 µg/disc (Pseudomonas aeruginosa [4]): 44 mm
- zone of inhibition at 5 µg/disc (Micrococcus luteus [5]): 28 mm
- zone of inhibition at 5 µg/disc (Klebsiella pneumoniae [6]): 28 mm
- zone of inhibition at 5 µg/disc [7]: 32 mm
- zone of inhibition at 5 µg/disc (Bacillus cereus [8]): 30 mm
- zone of inhibition at 5 µg/disc (Listeria monocytogenes [9]): 30 mm

Compound: CC1(C)S[C@@H]2[C@H](NC(=O)Cc3ccccc3)C(=O)N2[C@H]1C(=O)O [PENICILLIN G]
- zone of inhibition at 10 µg/disc [10]: 15 mm
- zone of inhibition at 10 µg/disc (Listeria monocytogenes [11]): 10 mm
- zone of inhibition at 10 µg/disc (Klebsiella pneumoniae [12]): 18 mm
- zone of inhibition at 10 µg/disc (Bacillus cereus [13]): 14 mm
- zone of inhibition at 10 µg/disc (Micrococcus luteus [14]): 36 mm
- zone of inhibition at 10 µg/disc (Pseudomonas aeruginosa [15]): 8 mm
- zone of inhibition at 10 µg/disc (Staphylococcus aureus [16]): 13 mm
- zone of inhibition at 10 µg/disc (Escherichia coli [17]): 18 mm
- zone of inhibition at 10 µg/disc (Proteus vulgaris [18]): 10 mm

Compound: CN(C)[C@@H]1C(O)=C(C(N)=O)C(=O)[C@@]2(O)C(O)=C3C(=O)c4c(O)cccc4[C@@](C)(O)[C@H]3C[C@@H]12 [TETRACYCLINE]
- zone of inhibition at 30 µg/disc (Listeria monocytogenes [19]): 28 mm
- zone of inhibition at 30 µg/disc (Micrococcus luteus [20]): 2 mm
- zone of inhibition at 30 µg/disc (Staphylococcus aureus [21]): 26 mm
- zone of inhibition at 30 µg/disc (Bacillus cereus [22]): 25 mm
- zone of inhibition at 30 µg/disc (Klebsiella pneumoniae [23]): 30 mm
- zone of inhibition at 30 µg/disc [24]: 24 mm
- zone of inhibition at 30 µg/disc (Pseudomonas aeruginosa [25]): 34 mm
- zone of inhibition at 30 µg/disc (Proteus vulgaris [26]): 26 mm
- zone of inhibition at 30 µg/disc (Escherichia coli [27]): 28 mm

Compound: CN[C@H](CC(C)C)C(=O)N[C@H]1C(=O)N[C@@H](CC(N)=O)C(=O)N[C@H]2C(=O)N[C@H]3C(=O)N[C@H](C(=O)N[C@H](C(=O)O)c4cc(O)cc(O)c4-c4cc3ccc4O)[C@H](O)c3ccc(c(Cl)c3)Oc3cc2cc(c3O[C@@H]2O[C@H](CO)[C@@H](O)[C@H](O)[C@H]2O[C@H]2C[C@](C)(N)[C@H](O)[C@H](C)O2)Oc2ccc(cc2Cl)[C@H]1O [VANCOMYCIN]
- zone of inhibition at 30 µg/disc (Listeria monocytogenes [19]): 26 mm
- zone of inhibition at 30 µg/disc (Micrococcus luteus [20]): 34 mm
- zone of inhibition at 30 µg/disc (Staphylococcus aureus [21]): 13 mm
- zone of inhibition at 30 µg/disc (Bacillus cereus [22]): 18 mm
- zone of inhibition at 30 µg/disc (Klebsiella pneumoniae [23]): 22 mm
- zone of inhibition at 30 µg/disc [24]: 20 mm
- zone of inhibition at 30 µg/disc (Pseudomonas aeruginosa [25]): 10 mm
- zone of inhibition at 30 µg/disc (Proteus vulgaris [26]): 20 mm
- zone of inhibition at 30 µg/disc (Escherichia coli [27]): 22 mm

Compound: GENTAMICIN
- MIC (Pseudomonas aeruginosa [28]): 6.25 µg/mL
- MIC (Klebsiella pneumoniae [29]): 6.25 µg/mL
- MIC (Micrococcus luteus [30]): 25 µg/mL
- MIC (Escherichia coli [31]): 6.25 µg/mL
- MIC (Listeria monocytogenes [32]): 12.5 µg/mL
- MIC (Bacillus cereus [33]): 6.25 µg/mL
- MIC [34]: 12.5 µg/mL
- MIC (Staphylococcus aureus [35]): 25 µg/mL
- MIC (Proteus vulgaris [36]): 6.25 µg/mL

Compound: NYSTATIN
- MIC [37]: 3.12 µg/mL
- MIC (Rhodotorula mucilaginosa [38]): 6.25 µg/mL
- inhibition zone (IZ) (Rhodotorula mucilaginosa [39]): 18 mm
- inhibition zone (IZ) (Kluyveromyces marxianus [40]): 18 mm
- inhibition zone (IZ) [41]: 21 mm
- MIC (Kluyveromyces marxianus [42]): 6.25 µg/mL
- MIC (Debaryomyces hansenii [43]): 12.5 µg/mL
- MIC (Candida albicans): 3.12 µg/mL
- inhibition zone (IZ) (Debaryomyces hansenii [44]): 16 mm

Source: ChEMBL document CHEMBL1147899, “Raman, FT-IR, NMR spectroscopic data and antimicrobial activity of bis[micro2-(benzimidazol-2-yl)-2-ethanethiolato-N,S,S-chloro-palladium(II)] dimer, [(micro2-CH2CH2NHNCC6H4)PdCl]2.C2H5OH complex” (2007)
